Usually inhibition stands for the relative decrease from the control value, in per cent.

Here are results for ten molecules from US7842812B2, “Substituted 5-aminomethy1-1H-pyrrole-2-carboxylic acid amides” (Gruenenthal GmbH, priority 2004, dated 2010).

The target in one assay is T1, 5-HT transporter (Rattus norvegicus, UniProt P31652).
T1 construct: from tissue; host or cells: rat brain synaptosomes (P2 fraction) from medulla and pons
T1 sequence (P31652 whole entry): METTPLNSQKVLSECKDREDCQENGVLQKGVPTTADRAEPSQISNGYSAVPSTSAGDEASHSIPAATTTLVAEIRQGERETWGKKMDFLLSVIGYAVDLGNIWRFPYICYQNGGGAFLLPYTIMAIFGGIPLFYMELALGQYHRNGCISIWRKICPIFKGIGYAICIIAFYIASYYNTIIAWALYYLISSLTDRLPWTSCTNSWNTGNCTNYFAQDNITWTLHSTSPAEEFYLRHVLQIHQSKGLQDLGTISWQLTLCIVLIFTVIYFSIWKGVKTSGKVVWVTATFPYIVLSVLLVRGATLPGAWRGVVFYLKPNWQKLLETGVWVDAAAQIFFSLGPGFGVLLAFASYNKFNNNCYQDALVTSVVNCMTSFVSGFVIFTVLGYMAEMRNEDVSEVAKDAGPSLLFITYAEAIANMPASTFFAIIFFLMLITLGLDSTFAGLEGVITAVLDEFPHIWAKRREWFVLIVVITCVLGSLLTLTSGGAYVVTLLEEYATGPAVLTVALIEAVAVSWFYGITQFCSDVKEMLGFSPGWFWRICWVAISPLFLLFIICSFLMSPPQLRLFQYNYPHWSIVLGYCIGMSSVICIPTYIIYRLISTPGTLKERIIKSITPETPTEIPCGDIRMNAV
The experiment in a line: 5-HT uptake inhibition in rat brain synaptosomes (medulla and pons). The assay is classed as biochemical. The settings on record: 10 μM. From the text: (§1) b) Method for Determining Noradrenalin and 5-HT Uptake Inhibition:
(§2) Synaptosomes from rat brain regions are freshly isolated for in vitro studies, as described in the publication “The isolation of nerve endings from brain” by E. G. Gray and V. P. Whittaker, J. Anatomy 96, pages 79-88, 1962, the disclosure of which is hereby incorporated by reference. The tissue (hypothalamus for the determination of noradrenalin uptake inhibition and medulla and pons for the determination of 5-HT uptake inhibition) is homogenized in ice-cooled 0.32 M sucrose (100 mg of tissue/1 ml) in a glass homogenizer with Teflon pestle using five complete up and down strokes at 840 revolutions/minute. The homogenate is centrifuged at 4° C. for 10 minutes at 1000 g. After subsequent centrifugation at 17000 g for 55 minutes, the synaptosomes (P2 fraction) are obtained, which are resuspended in 0.32 M […] (0.5 ml/100 mg of original weight).
The particular uptake is measured in a 96-well microtitre plate. The volume is 250 μl and the incubation proceeds at room temperature (approx. 20-25° C.) under an O2 atmosphere. The incubation time is 7.5 minutes for [^3H]-NA and 5 minutes for [^3H]-5-HT. The 96 samples are then filtered through a Unifilter GF/B® microtitre plate (Packard) and washed with […] of incubated buffer using a “Brabdel MPXRI-96T Cell-Harvester”. The Unifilter GF/B plate is dried for 1 hour at 55° C. […] After sealing with a Top Seal® (Packard) and establishing an equilibrium (around 5 hours), radioactivity is determined in a “Trilux 1450 Microbeta” (Wallac).
The quantity of protein used in the above determination corresponds to the values known from the literature, as for example described in “Protein measurement with the folin phenol reagent”, Lowry et al., J. Biol. Chem., 193, 265-275, 1951. […]
(§3) The 5-HT reuptake inhibition and noradrenalin reuptake inhibition of the 5-aminomethyl-1H-pyrrole-2-carboxylic acid amides according to the invention were determined as described above.
`CC1CCN(Cc2ccc(C(=O)N(C)Cc3ccccc3)n2C)CC1` [Example 1, 1-Methyl-5-(4-methyl-piperidin-1-ylmethyl)-1H-pyrrole-2-carboxylic acid benzyl-methyl amide] showed a 5HT uptake inhibition of 70 % inhibition.

As for `Cn1c(CN2CCCCCC2)ccc1C(=O)N1CCCC1` [Example 2, (5-Azepan-1-ylmethyl-1-methyl-1H-pyrrol-2-yl)-pyrrolidin-1-yl methanone], the 5HT uptake inhibition stood at 60 % inhibition.

The molecule `CC1CCCCN1Cc1ccc(C(=O)N2CCCC2)n1C` (stereo not drawn) [Example 3, [1-Methyl-5-(2-methyl-piperidin-1-ylmethyl)-1H-pyrrol-2-yl]-pyrrolidin-1-yl methanone] came in with a 5HT uptake inhibition of 52 % inhibition.

In a further assay the target is T2, human μ opioid receptor (Homo sapiens, UniProt P35372).
T2 construct: purchased NEN, Zaventem, Belgium RB-HOM; host or cells: CHO-K1 cells (membrane preparation)
T2 sequence (P35372 whole entry): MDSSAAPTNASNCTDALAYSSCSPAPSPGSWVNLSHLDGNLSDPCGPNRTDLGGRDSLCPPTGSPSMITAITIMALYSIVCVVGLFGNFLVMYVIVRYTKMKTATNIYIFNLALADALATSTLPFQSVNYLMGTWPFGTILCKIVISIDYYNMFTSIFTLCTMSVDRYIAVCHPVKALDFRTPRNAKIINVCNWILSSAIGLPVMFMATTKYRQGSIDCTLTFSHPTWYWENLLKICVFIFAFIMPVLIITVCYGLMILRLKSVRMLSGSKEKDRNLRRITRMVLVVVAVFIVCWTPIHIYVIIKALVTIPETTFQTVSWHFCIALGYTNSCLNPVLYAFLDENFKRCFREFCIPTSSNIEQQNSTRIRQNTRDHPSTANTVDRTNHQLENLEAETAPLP
Description: Affinity for human μ opioid receptor ([3H]-naloxone displacement, CHO-K1 membrane preparation, SPA). The settings on record: percentage inhibition of specific [3H]-naloxone binding; compound concentration 1 μmol/l; read-out: OR μ1 human naloxone inhibition [%]. How it is done:
a) Method for Determining Affinity for Human μ Opioid Receptor
Receptor affinity for the human μ opioid receptor is determined in a homogeneous batch in microtitre plates. […] Once the ninety minute incubation time had elapsed, the microtitre plates were centrifuged off for 20 minutes at 1000 g and the radioactivity measured in a β-Counter (Microbeta-Trilux, from PerkinElmer Wallac, Freiburg, Germany). The percentage displacement of the radioactive ligand from its binding to the human μ opiate receptor is determined at a concentration of the compounds to be tested of 1 μmol/l and stated as percentage inhibition of specific binding. […]
The affinity of the 5-aminomethyl-1H-pyrrole-2-carboxylic acid amides according to the invention for the μ receptor was determined as described above.
Take `CC1CCCCN1Cc1ccc(C(=O)N2CCCCC2)n1C` (stereo not drawn) [Example 10, [1-Methyl-5-(2-methyl-piperidin-1-ylmethyl)-1H-pyrrol-2-yl]-piperidin-1-yl methanone]: the inhibition at 1 µM was determined as 86%.

In the case of `CC1CCCCN1Cc1ccc(C(=O)N2CCCC2)n1C` (stereo not drawn) [Example 3, [1-Methyl-5-(2-methyl-piperidin-1-ylmethyl)-1H-pyrrol-2-yl]-pyrrolidin-1-yl methanone], the inhibition at 1 µM was 83%.

Another assay deals with T3, NA transporter (Rattus norvegicus, UniProt Q63380).
T3 construct: from tissue; host or cells: rat brain synaptosomes (P2 fraction) from hypothalamus
T3 sequence (Q63380 1-617): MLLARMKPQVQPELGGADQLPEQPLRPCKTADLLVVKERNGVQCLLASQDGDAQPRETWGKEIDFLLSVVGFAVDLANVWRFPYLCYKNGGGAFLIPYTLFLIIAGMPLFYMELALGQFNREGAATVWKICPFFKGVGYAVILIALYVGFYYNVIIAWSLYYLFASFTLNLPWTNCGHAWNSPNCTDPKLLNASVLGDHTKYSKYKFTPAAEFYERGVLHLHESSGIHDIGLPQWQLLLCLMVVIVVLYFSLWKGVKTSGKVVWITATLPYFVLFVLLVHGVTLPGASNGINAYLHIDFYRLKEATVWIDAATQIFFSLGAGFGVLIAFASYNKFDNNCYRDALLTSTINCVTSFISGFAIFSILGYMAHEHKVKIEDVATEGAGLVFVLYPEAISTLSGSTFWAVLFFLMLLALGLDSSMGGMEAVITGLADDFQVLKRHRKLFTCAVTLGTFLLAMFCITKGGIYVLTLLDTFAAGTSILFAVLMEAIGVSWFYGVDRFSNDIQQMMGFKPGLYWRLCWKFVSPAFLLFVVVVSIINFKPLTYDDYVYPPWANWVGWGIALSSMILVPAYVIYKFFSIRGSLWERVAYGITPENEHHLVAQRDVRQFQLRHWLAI
The experiment in a line: Noradrenalin (NA) uptake inhibition in rat brain synaptosomes (hypothalamus). The assay is classed as biochemical. The settings on record: 10 μM.
Text: as §1, §2
The particular uptake is measured in a 96-well microtitre plate. The volume is 250 μl and the incubation proceeds at room temperature (approx. 20-25° C.) under an O2 atmosphere. The incubation time is 7.5 minutes for [^3H]-NA and 5 minutes for [^3H]-5-HT. The 96 samples are then filtered through a Unifilter GF/B® microtitre plate (Packard) and washed with […] of incubated buffer using a “Brabdel MPXRI-96T Cell-Harvester”. The Unifilter GF/B plate is dried for 1 hour at 55° C. The plate is then sealed with a Back Seal® (Packard) and 35 μl of scintillation fluid are added per well (Ultima Gold®, Packard). After sealing with a Top Seal® (Packard) and establishing an equilibrium (around 5 hours), radioactivity is determined in a “Trilux 1450 Microbeta” (Wallac).
The quantity of protein used in the above determination corresponds to the values known from the literature, as for example described in “Protein measurement with the folin phenol reagent”, Lowry et al., J. Biol. Chem., 193, 265-275, 1951. A detailed description of the method may additionally be found in the literature, for example in M. Ch. Frink, H.-H. Hennies, W. Engelberger, M. Haurand and B. Wilffert (1996) Arzneim.-Forsch./Drug Res. 46 (III), 11, 1029-1036, the disclosures of which are hereby incorporated by reference.
The following characteristics were determined for the NA or 5-HT transporter: NA uptake: Km=0.32±0.11 μM 5HT uptake: Km=0.084±0.011 μM. c) Investigation of Analgesic Efficacy by the Writhing Test
as §3
The molecule `CC1CCN(Cc2ccc(C(=O)N(C)Cc3ccccc3)n2C)CC1` [Example 1, 1-Methyl-5-(4-methyl-piperidin-1-ylmethyl)-1H-pyrrole-2-carboxylic acid benzyl-methyl amide] came in with an NA uptake inhibition of 81 % inhibition.

As for `CCOC(=O)C1CCN(Cc2ccc(C(=O)N(Cc3ccccc3)Cc3ccccc3)n2C)CC1` [Example 6, 1-(5-Dibenzylcarbamoyl-1-methyl-1H-pyrrol-2-ylmethyl)-piperidine-4-carboxylic acid ethyl ester], the NA uptake inhibition was 74 % inhibition.

Regarding `CN(C(=O)c1ccc(CN2CCC(Cc3ccccc3)CC2)n1C)C1CCCCC1` [Example 7, 5-(4-Benzyl-piperidin-1-ylmethyl)-1-methyl-1H-pyrrole-2-carboxylic acid cyclohexyl-methyl amide], the NA uptake inhibition is given as 62 % inhibition.

As for `CC1CCCCN1Cc1ccc(C(=O)N(C)Cc2ccccc2)n1C` (stereo not drawn) [Example 5, 1-Methyl-5-(2-methyl-piperidin-1-ylmethyl)-1H-pyrrole-2-carboxylic acid benzyl-methyl amide], the NA uptake inhibition was 81 % inhibition.

`Cn1c(CN2CCC(Cc3ccccc3)CC2)ccc1C(=O)N1CCCCC1` [Example 8, [5-(4-Benzyl-piperidin-1-ylmethyl)-1-methyl-1H-pyrrol-2-yl]-piperidin-1-yl methanone] came in with an NA uptake inhibition of 61 % inhibition.

As for “1-Methyl-5-pyrrolidin-1-ylmethyl-1H-pyrrole-2-carboxylic acid benzyl amide [Example 4]”, the NA uptake inhibition was found to be 82 % inhibition.

The molecule `CC1CCCCN1Cc1ccc(C(=O)N(Cc2ccccc2)C(C)C)n1C` (stereo not drawn) [Example 9, 1-Methyl-5-(2-methyl-piperidin-1-ylmethyl)-1H-pyrrole-2-carboxylic acid benzyl-isopropyl amide] had an NA uptake inhibition of 59 % inhibition.
